Assays:
Format in all cases: physicochemical
[1] = Solubility of compounds in toluene
Method: The solubility of the compounds in the toluene were determined as follows: • 1. 1000 mg of toluene solution was placed in the transparent glass sample bottle. • 2. A certain mass of the compound was added into the toluene, and oscillated until completely dissolved. • 3. After the compound was completely dissolved, a certain mass of the compound was further added into the toluene, and oscillated. • 4. The above steps were repeated until the compound wasn't dissolved any more. • 5. The total mass of the compound added was recorded and the solubility was obtained by calculation.

[2] = Absorption spectrum, emission spectrum and extinction coefficient in toluene solution; conditions: for Molar extinction coefficient of the toluene solution: maximum absorption peak
Method: The extinction coefficients of the compounds and their absorption and emission spectrums in the solution were determined as follows: • 1. The compound with a certain amount of substance concentration in the toluene was prepared in a volumetric flask. • 2. The absorption spectrum of the solution was measured by using an ultraviolet-visible spectrophotometer (Puxi T9s) to obtain the absorption peak wavelength. • 3. The absorbance of the maximum absorption peak divided by the amount of substance concentration is the molar extinction coefficient of the compound. • 4. The emission spectrum of the solution was measured by using a fluorescent spectroscope (Hitachi, F-4700 FL Spectrophotometer) to obtain the emission peak wavelength.

[3] = Absorption and emission spectrum in spin-coated film; conditions: spin-coated film
Method: The absorption and emission spectrums of the compounds in the film were determined as follows: • 1. The compound with a certain concentration in the toluene was prepared. • 2. The prepared toluene solution was dropped onto a clean glass substrate. • 3. Spin-coating, and then heating at the 80° C. for 1 min. • 4. The absorption spectrum of the film was measured by using an ultraviolet-visible spectrophotometer (Puxi T9s) to obtain the absorption peak wavelength. • 5. The emission spectrum of the film was measured by using a fluorescent spectroscope (Hitachi, F-4700 FL Spectrophotometer) to obtain the emission peak wavelength.

[4] = UV stability of compounds in toluene (absorbance decay to 80%); conditions: 1×10^−5 mol/L in toluene, UV LEDs 365 nm & 255 nm, time to 80% absorbance, normalized to comparative compound 2 as 100%
Method: The compound was dissolved in the toluene with a concentration of 1×10^−5 mol/L. 3 mL solution was added to the cuvette with a lid and the lid was screwed on tightly, then the cuvette was placed in the ultraviolet-visible spectrophotometer to test the absorption spectrum, the absorbance of the maximum absorption peak was recorded as the initial value. The cuvette was placed at a distance of 12 cm from the UV LEDs (365 nm & 255 nm), irradiated for a period and tested its absorption spectrum, then continued to be irradiated after the test, and repeated until the absorbance decayed to 80% of its initial value, the time was recorded as t80.

[5] = Blue light stability of the film (luminance decay); conditions: about 800 nm evaporated film, blue LED 460 nm, 3000 cd/m^2, versus comparative compound 1
Method: A film about 800 nm was evaporated, encapsulated with a glass cover plate, then placed at 2.5 cm above the blue LED (460 nm, 3000 cd/m^2) to test the luminance value with a luminance meter (Fstar, CS-2000A). The luminance value of the first test was recorded as the initial value, and the luminance was tested by irradiating for a period of time to obtain the luminance decay curve, see FIG. 34.

Row | SMILES | Solubilities(/100 g, toluene) [1] | Absorption peak of the toluene solution [2] | Emission peak of the toluene solution [2] | Molar extinction coefficient of the toluene solution [2] | Absorption peak of the film [3] | Emission peak of the film [3] | Times t80 [4] | stability of the film under blue-light illumination (luminance decay) [5]
1 | CCc1cccc(CC)c1N(c1cc(C(C)(C)C)cc(C(C)(C)C)c1)c1cc(N(c2cc(C(C)(C)C)cc(C(C)(C)C)c2)c2c(CC)cccc2CC)c2ccc3c(N(c4cc(C(C)(C)C)cc(C(C)(C)C)c4)c4c(CC)cccc4CC)cc(N(c4cc(C(C)(C)C)cc(C(C)(C)C)c4)c4c(CC)cccc4CC)c4ccc1c2c43 [compound 8] | 30.1 g/100 g toluene | 484 nm | 501 nm | 5.3 × 10^4 L · mo 1^−1 | 482 nm | 499 nm | 261% | obviously improved UV stability
2 | CCCCCCCCc1ccc(-c2cc(C(C)C)ccc2N(c2cc(F)c(F)c(F)c2)c2cc(N(c3cc(F)c(F)c(F)c3)c3ccc(C(C)C)cc3-c3ccc(CCCCCCCC)cc3)c3ccc4c(N(c5cc(F)c(F)c(F)c5)c5ccc(C(C)C)cc5-c5ccc(CCCCCCCC)cc5)cc(N(c5cc(F)c(F)c(F)c5)c5ccc(C(C)C)cc5-c5ccc(CCCCCCCC)cc5)c5ccc2c3c54)cc1 [compound 13] | >15 g/100 g toluene | 473 nm | 494 nm | 5.9 × 10^4 L · mo 1^−1 | 473 nm | 490 nm | 410% | 
3 | CC1CCC(C(C)C)C(Oc2ccc(-c3cc(C(C)C)ccc3N(c3cc(F)c(F)c(F)c3)c3cc(N(c4cc(F)c(F)c(F)c4)c4ccc(C(C)C)cc4-c4ccc(OC5CC(C)CCC5C(C)C)cc4)c4ccc5c(N(c6cc(F)c(F)c(F)c6)c6ccc(C(C)C)cc6-c6ccc(OC7CC(C)CCC7C(C)C)cc6)cc(N(c6cc(F)c(F)c(F)c6)c6ccc(C(C)C)cc6-c6ccc(OC7CC(C)CCC7C(C)C)cc6)c6ccc3c4c65)cc2)C1 (stereo not drawn) [compound 15] | >10 g/100 g toluene | 476 nm | 493 nm | 6.8 × 10^4 L · mo 1^−1 | 473 nm | 491 nm | 440% | 
4 | CCCCCCCCc1ccc(-c2cc(OC)ccc2N(c2cc(F)c(F)c(F)c2)c2cc(N(c3cc(F)c(F)c(F)c3)c3ccc(OC)cc3-c3ccc(CCCCCCCC)cc3)c3ccc4c(N(c5cc(F)c(F)c(F)c5)c5ccc(OC)cc5-c5ccc(CCCCCCCC)cc5)cc(N(c5cc(F)c(F)c(F)c5)c5ccc(OC)cc5-c5ccc(CCCCCCCC)cc5)c5ccc2c3c54)cc1 [compound 16] | >10 g/100 g toluene | 475 nm | 496 nm | 7.0 × 10^4 L · mo 1^−1 | 476 nm | 496 nm | 383% | 
5 | CCCCCCCCc1ccc(N(c2ccc(C(C)C)cc2-c2cc(F)c(F)c(F)c2)c2cc(N(c3ccc(CCCCCCCC)cc3)c3ccc(C(C)C)cc3-c3cc(F)c(F)c(F)c3)c3ccc4c(N(c5ccc(CCCCCCCC)cc5)c5ccc(C(C)C)cc5-c5cc(F)c(F)c(F)c5)cc(N(c5ccc(CCCCCCCC)cc5)c5ccc(C(C)C)cc5-c5cc(F)c(F)c(F)c5)c5ccc2c3c54)cc1 [compound 20] | >10 g/100 g toluene | 485 nm | 504 nm | 5.5 × 10^4 L · mo 1^−1 | 486 nm | 504 nm | 528% | 
